For data set [1], the system named is Staphylococcus aureus 25923. As to the kind of experiment: agar disc-diffusion antibacterial assay. Format: cell-based. As to conditions: S. aureus 25923, disc loaded with 100 μg, 37 °C, 24 h, read-out: diameter of inhibition zone. A general note: Agar diffusion results depend on both activity and mobility in agar.
Description: (§1) The clinical control strains of Gram-negative bacteria (Escherichia coli 8739, Salmonella typhimurium 14028, Pseudomonas aeruginosa 27853) and Gram-positive bacteria (Bacillus subtilis 6633, Bacillus cereus 33018, Staphylococcus aureus 25923), were obtained from microbial inoculums by subculturing microorganisms into nutrient broth (NB) at 37 °C for 18 h, and were adjusted to 0.125 A° at 625 nm (equivalent to a McFarland 0.5) in 2-fold NB. A 100 μL measure of NB containing each test microorganism was added to the sterile Petri dishes. Antibacterial testing was carried out on all compounds (3a,b–14) using the agar disc-diffusion method [40]. Sterile nutrients were inoculated with 100 μL cell suspension of the chosen test microorganism and poured into Petri dishes (20 cm diameter). Filter paper discs (Whatman, No.3, diameter 5 mm) were loaded with 10 μL containing 100 μg of the tested compounds, as well as the standard drug. Composite compound disks were placed on the surface of inoculated agar plates and kept at low temperatures before incubation in order to support the swelling and diffusion of the microbial growth. The plates were incubated at 37 °C in the incubator. Experiments were performed in duplicate and the diameters of inhibition zones were measured after 24 h. A diameter of inhibition zone (DIZ) assay was performed to evaluate the antimicrobial potential of the compounds against the tested organisms compared with reference antibiotics.
For data set [2], the system named is Escherichia coli 8739. As to the kind of experiment: MIC determination by dilution procedure. Format: cell-based. Particulars: E. coli 8739, dilutions 125-1.95 μg/mL, read-out: minimum inhibitory concentration (MIC).
In data set [3] the test system is Salmonella typhimurium 14028. Nature of the data set: MIC determination by dilution procedure. Format: cell-based. Particulars: Salmonella enterica; S. typhimurium 14028; dilutions 125-1.95 μg/mL; read-out: minimum inhibitory concentration (MIC).
Description: (§2) The clinical control strains of Gram-negative bacteria (Escherichia coli 8739, Salmonella typhimurium 14028, Pseudomonas aeruginosa 27853) and Gram-positive bacteria (Bacillus subtilis 6633, Bacillus cereus 33018, Staphylococcus aureus 25923), were obtained from microbial inoculums by subculturing microorganisms into nutrient broth (NB) at 37 °C for 18 h, and were adjusted to 0.125 A° at 625 nm (equivalent to a McFarland 0.5) in 2-fold NB. A 100 μL measure of NB containing each test microorganism was added to the sterile Petri dishes. Antibacterial testing was carried out on all compounds (3a,b–14) using the agar disc-diffusion method [40]. Sterile nutrients were inoculated with 100 μL cell suspension of the chosen test microorganism and poured into Petri dishes (20 cm diameter). Filter paper discs (Whatman, No.3, diameter 5 mm) were loaded with 10 μL containing 100 μg of the tested compounds, as well as the standard drug. Composite compound disks were placed on the surface of inoculated agar plates and kept at low temperatures before incubation in order to support the swelling and diffusion of the microbial growth. The plates were incubated at 37 °C in the incubator. Experiments were performed in duplicate and the diameters of inhibition zones were measured after 24 h.
Data set [4] has as its system Bacillus subtilis 6633. As to the kind of experiment: MIC determination by dilution procedure. Particulars: B. subtilis 6633, dilutions 125-1.95 μg/mL, read-out: minimum inhibitory concentration (MIC). It is filed as cell-based.
Description: (§3) A 100 μL measure of NB containing each test microorganism was added to the sterile Petri dishes. Antibacterial testing was carried out on all compounds (3a,b–14) using the agar disc-diffusion method [40]. Sterile nutrients were inoculated with 100 μL cell suspension of the chosen test microorganism and poured into Petri dishes (20 cm diameter). Filter paper discs (Whatman, No.3, diameter 5 mm) were loaded with 10 μL containing 100 μg of the tested compounds, as well as the standard drug. Composite compound disks were placed on the surface of inoculated agar plates and kept at low temperatures before incubation in order to support the swelling and diffusion of the microbial growth. The plates were incubated at 37 °C in the incubator. Experiments were performed in duplicate and the diameters of inhibition zones were measured after 24 h. A diameter of inhibition zone (DIZ) assay was performed to evaluate the antimicrobial potential of the compounds against the tested organisms compared with reference antibiotics.
Data set [5] has as its system Staphylococcus aureus 25923. As to the kind of experiment: MIC determination by dilution procedure. As to conditions: Staphylococcus aureus, 25923, S. aureus 25923; dilutions 125-1.95 μg/mL; read-out: minimum inhibitory concentration (MIC). Format: cell-based.
Description: as §3
For data set [6], the system named is Pseudomonas aeruginosa 27853. As to the kind of experiment: MIC determination by dilution procedure. Format: cell-based. Particulars: Pseudomonas aeruginosa, 27853, P. aeruginosa 27853; dilutions 125-1.95 μg/mL; read-out: minimum inhibitory concentration (MIC).
For data set [7], the system named is Bacillus subtilis 6633. Nature of the data set: agar disc-diffusion antibacterial assay. It is filed as cell-based. Particulars: B. subtilis 6633, disc loaded with 100 μg, 37 °C, 24 h, read-out: diameter of inhibition zone.
Description: as §3
Data set [8] deals with Salmonella typhimurium 14028. Nature of the data set: agar disc-diffusion antibacterial assay. It is filed as cell-based. Particulars: Salmonella enterica; S. typhimurium 14028; disc loaded with 100 μg; 37 °C, 24 h; read-out: diameter of inhibition zone.
Description: as §2
The subject of data set [9] is methicillin-resistant Staphylococcus aureus (MRSA). Nature of the data set: inhibition zones against MRSA (disc diffusion). Format: cell-based.
The test system of data set [10] is Pseudomonas aeruginosa 27853. As to the kind of experiment: agar disc-diffusion antibacterial assay. Format: cell-based. Particulars: P. aeruginosa 27853, disc loaded with 100 μg, 37 °C, 24 h, read-out: diameter of inhibition zone.
Description: as §1
Data set [11] deals with Escherichia coli 8739. Nature of the data set: agar disc-diffusion antibacterial assay. It is filed as cell-based. Particulars: E. coli 8739, disc loaded with 100 μg, 37 °C, 24 h, read-out: diameter of inhibition zone.
Description: as §1
For data set [12], the system named is Bacillus cereus 33018. Nature of the data set: agar disc-diffusion antibacterial assay. It is filed as cell-based. Particulars: B. cereus 33018, disc loaded with 100 μg, 37 °C, 24 h, read-out: diameter of inhibition zone.
Description: as §3
Data set [13] deals with Bacillus cereus 33018. Nature of the data set: MIC determination by dilution procedure. It is filed as cell-based. Particulars: B. cereus 33018, dilutions 125-1.95 μg/mL, read-out: minimum inhibitory concentration (MIC).
Description: as §3
The target in a further data set is T1, DNA gyrase from E. coli (Escherichia coli, UniProt P0AES6).
T1 construct: purchased TopoGEN
As to the kind of experiment: Escherichia coli DNA gyrase supercoiling inhibition assay. Format: biochemical.

The record followed here is paper PMC6832920, “Synthesis, Docking Studies, and In Vitro Evaluation of Some Novel Thienopyridines and Fused Thienopyridine–Quinolines as Antibacterial Agents and DNA Gyrase Inhibitors” (Molecules, 2019).

In brackets after ≈: the same amount, converted by molar mass.

Usually zone of inhibition stands for the extent of the growth-free halo in a diffusion test. A word on the IC50: it is the concentration that inhibits the measured activity by half. As usually defined, the melting point is the temperature, or range, at which the solid turns liquid.

For `COc1ccc(-c2cc(-c3ccco3)nc3sc(C(N)=O)c(N=C4CCCCC4)c23)cc1` [Compound 4a, 3-(Cyclohexylideneamino)-6-(furan-2-yl)-4-(4-methoxyphenyl)thieno[2,3-b]pyridine-2-carboxamide], the zone of inhibition at 100 µg/disc in data set [1] was found to be 18 mm; in the data set with Bacillus subtilis 6633 [7], 15 mm; in [8], 15 mm; in data set [10], 13 mm; with Escherichia coli 8739 [11] it was 18 mm; with Bacillus cereus 33018 [12], 16 mm. Also, the MIC turned out to be 15.6 µg/mL (≈ 35.1 µM) in the data set on Escherichia coli 8739 [2]; 15.6 µg/mL (≈ 35.1 µM) in [3]; 15.6 µg/mL (≈ 35.1 µM) in the data set with Bacillus subtilis 6633 [4]; 15.6 µg/mL (≈ 35.1 µM) in [5]; 31.2 µg/mL (≈ 70.1 µM) in [6]; 15.6 µg/mL (≈ 35.1 µM) in the data set with Bacillus cereus 33018 [13]. Further, the “zone of inhibition against MRSA” value in data set [9] was found to be 13 mm. This molecule came in with an IC50 at DNA gyrase from E. coli of 3.69 ± 0.15 µM.

The molecule `CC1=NN=C(Nc2c3c(nc4c2sc2nc(-c5ccco5)cc(-c5cccs5)c24)CCCC3)C1` [Compound 14, 2-(furan-2-yl)-N-(5-methyl-4H-pyrazol-3-yl) -4-(thiophen-2-yl)-6,7,8,9-tetrahydropyrido[3′,2′:4,5]thieno[3,2-b]quinolin-10-amine] had a melting point of 274 °C. The zone of inhibition at 100 µg/disc in data set [1] turned out to be 13 mm. Also, the MIC in the data set on Escherichia coli 8739 [2] was determined as 15.6 µg/mL (≈ 32.3 µM). Also, the MIC in data set [3] came out at 31.2 µg/mL (≈ 64.6 µM). Besides, the MIC in the data set with Bacillus subtilis 6633 [4] came to 15.6 µg/mL (≈ 32.3 µM). Moreover, the MIC in data set [5] was 31.2 µg/mL (≈ 64.6 µM). The MIC in data set [6] is 31.2 µg/mL (≈ 64.6 µM). For the same molecule, the zone of inhibition at 100 µg/disc with Bacillus subtilis 6633 [7] is 16 mm. The zone of inhibition at 100 µg/disc in data set [8] came to 12 mm. Moreover, in [10], the zone of inhibition at 100 µg/disc came to 10 mm. The zone of inhibition at 100 µg/disc with Escherichia coli 8739 [11] turned out to be 15 mm. For the same molecule, in the data set on Bacillus cereus 33018 [12], the zone of inhibition at 100 µg/disc is 17 mm. In the data set with Bacillus cereus 33018 [13], the MIC turned out to be 15.6 µg/mL (≈ 32.3 µM). Also, the midpoint of inhibition against DNA gyrase from E. coli, the IC50, lay at 11.7 ± 0.93 µM.

Turning to `CNC(C)C1CCC(N)C(OC2C(N)CC(N)C(OC3OCC(C)(O)C(NC)C3O)C2O)O1` (centres unmarked) [Gentamicin, gentamicin, reference compound], the “zone of inhibition against MRSA” value in data set [9] stood at 15 mm.

`COc1ccc(-c2cc(-c3ccco3)nc3sc4c(NC(=O)CNN)c5c(nc4c23)CCCC5)cc1` [Compound 7a, N-(2-(furan-2-yl)-4-(4-methoxyphenyl)-6,7,8,9-tetrahydropyrido[3′,2′:4,5]thieno[3,2-b]quinolin-10-yl)-2-hydrazinylacetamide] gave a melting point of 278 °C. Further, the zone of inhibition at 100 µg/disc in data set [1] was determined as 19 mm. Also, the MIC in the data set on Escherichia coli 8739 [2] stood at 15.6 µg/mL (≈ 31.3 µM). The MIC in [3] amounted to 31.2 µg/mL (≈ 62.6 µM). The MIC in the data set on Bacillus subtilis 6633 [4] was determined as 15.6 µg/mL (≈ 31.3 µM). Moreover, the MIC in data set [5] was determined as 15.6 µg/mL (≈ 31.3 µM). For the same molecule, the MIC in data set [6] stood at 31.2 µg/mL (≈ 62.6 µM). Besides, the zone of inhibition at 100 µg/disc in the data set on Bacillus subtilis 6633 [7] came out at 17 mm. In data set [8], the zone of inhibition at 100 µg/disc is 11 mm. Besides, in [9], the “zone of inhibition against MRSA” value was determined as 18 mm. Besides, the zone of inhibition at 100 µg/disc in data set [10] turned out to be 11 mm. For the same molecule, in the data set on Escherichia coli 8739 [11], the zone of inhibition at 100 µg/disc was 16 mm. For the same molecule, the zone of inhibition at 100 µg/disc with Bacillus cereus 33018 [12] came to 15 mm. For the same molecule, in the data set on Bacillus cereus 33018 [13], the MIC was 15.6 µg/mL (≈ 31.3 µM). This molecule showed an IC50 against DNA gyrase from E. coli of 8.66 ± 0.61 µM.

The molecule `COc1ccc(-c2cc(-c3ccco3)nc3sc4c(N=Cc5cccs5)c5c(nc4c23)CCCC5)cc1` [Compound 12b, N-(2-(furan-2-yl)-4-(4-methoxyphenyl)-6,7,8,9-tetrahydropyrido[3′,2′:4,5]thieno[3,2-b]quinolin-10-yl)-1-(thiophen-2-yl)methanimine] had a melting point of 114 °C. The zone of inhibition at 100 µg/disc in data set [1] is 16 mm. Moreover, in the data set with Escherichia coli 8739 [2], the MIC is 15.6 µg/mL (≈ 30 µM). Also, the MIC in [3] was found to be 15.6 µg/mL (≈ 30 µM). Also, in the data set with Bacillus subtilis 6633 [4], the MIC was determined as 15.6 µg/mL (≈ 30 µM). Also, the MIC in data set [5] worked out at 15.6 µg/mL (≈ 30 µM). The MIC in data set [6] was 15.6 µg/mL (≈ 30 µM). For the same molecule, the zone of inhibition at 100 µg/disc in the data set on Bacillus subtilis 6633 [7] came to 15 mm. Besides, the zone of inhibition at 100 µg/disc in data set [8] worked out at 16 mm. In [9], the “zone of inhibition against MRSA” value was 15 mm. The zone of inhibition at 100 µg/disc in data set [10] was determined as 16 mm. In addition, the zone of inhibition at 100 µg/disc in the data set on Escherichia coli 8739 [11] was 18 mm. Also, in the data set with Bacillus cereus 33018 [12], the zone of inhibition at 100 µg/disc stood at 15 mm. In addition, the MIC with Bacillus cereus 33018 [13] is 15.6 µg/mL (≈ 30 µM). 4.6 ± 0.28 µM corresponded to half-maximal inhibition at DNA gyrase from E. coli (IC50).

Take `COc1ccc(-c2cc(-c3ccco3)nc3sc4c(NC(=O)CN5CCN(C)CC5)c5c(nc4c23)CCCC5)cc1` [Compound 9b, N-(2-(furan-2-yl)-4-(4-methoxyphenyl)-6,7,8,9-tetrahydropyrido[3′,2′:4,5]thieno[3,2-b]quinolin-10-yl)-2-(4-methylpiperazin-1-yl)acetamide]: the melting point lay in the range of 158 to 159 °C. Also, in [1], the zone of inhibition at 100 µg/disc worked out at 16 mm. In the data set with Escherichia coli 8739 [2], the MIC was 15.6 µg/mL (≈ 27.5 µM). Moreover, the MIC in [3] amounted to 15.6 µg/mL (≈ 27.5 µM). For the same molecule, the MIC in the data set with Bacillus subtilis 6633 [4] was 15.6 µg/mL (≈ 27.5 µM). For the same molecule, the MIC in data set [5] came to 15.6 µg/mL (≈ 27.5 µM). Further, in data set [6], the MIC is 15.6 µg/mL (≈ 27.5 µM). For the same molecule, the zone of inhibition at 100 µg/disc in the data set with Bacillus subtilis 6633 [7] was found to be 15 mm. Further, in data set [8], the zone of inhibition at 100 µg/disc worked out at 19 mm. Also, in data set [9], the “zone of inhibition against MRSA” value came out at 14 mm. Besides, the zone of inhibition at 100 µg/disc in [10] is 18 mm. In addition, in the data set on Escherichia coli 8739 [11], the zone of inhibition at 100 µg/disc was found to be 20 mm. Further, the zone of inhibition at 100 µg/disc with Bacillus cereus 33018 [12] was 18 mm. Besides, the MIC in the data set with Bacillus cereus 33018 [13] is 15.6 µg/mL (≈ 27.5 µM). The molecule also displayed an IC50 against DNA gyrase from E. coli of 5.78 ± 0.46 µM.
